In paper PMC2990605 (British Journal of Cancer, 2010):

Test: Adverse events (CTCAEv3.0), worst grade per patient regardless of relation, and laboratory parameters
Type: in vivo
Conditions: human, in vivo
Experimental: Toxicity was evaluated according to common toxicity criteria for adverse events (CTCAEv3.0). The MTD was defined as the dose level(s) at which at least two out of six patients developed DLT.
Toxicity assessment, haematology and clinical biochemistry were performed at baseline and weekly during the study. Physical and ECOG performance status were recorded at baseline and before the next cycle.

In the case of `CC(C)C[C@@H](C(=O)N[C@H](C(=O)OC1CCCC1)c1ccccc1)[C@H](O)C(=O)NO` [tosedostat], the “Pollakiuria, patients with events, %” value is reported as 5%, the “Pruritus, CTCAE grade 1, patients” value is reported as 5 and the “Pruritus, CTCAE grade 2, patients” value is reported as 0. The “Pruritus, CTCAE grade 3, patients” value was 1, the “Pruritus, CTCAE grade 4, patients” value was 0 and the “Pruritus, patients with events, %” value was 27%. The “Pulmonary embolism, CTCAE grade 1, patients” value was 0, the “Pulmonary embolism, CTCAE grade 2, patients” value was 0 and the “Pulmonary embolism, CTCAE grade 4, patients” value was 0. The “Pyrexia, CTCAE grade 1, patients” value was 4, the “Pyrexia, CTCAE grade 2, patients” value was 2 and the “Pyrexia, CTCAE grade 3, patients” value was 0. The “Pyrexia, CTCAE grade 4, patients” value was 0, the “Pyrexia, patients with events, %” value was 27% and the “Rash, CTCAE grade 1, patients” value was 9. The “Rash, CTCAE grade 2, patients” value was 1, the “Rash, CTCAE grade 3, patients” value was 2 and the “Rash, CTCAE grade 4, patients” value was 0. The “Rash, patients with events, %” value was 55%, the “Renal and urinary disorders, patients with events, %” value was 23% and the “Respiratory, thoracic and mediastinal disorders, patients with events, %” value was 73%. The SAEs considered disease-related was 13, the “SAEs reported, total number” value was 19 and the “Skin and subcutaneous tissue disorders, patients with events, %” value was 100%. The “Spinal cord compression, CTCAE grade 1, patients” value was 0, the “Spinal cord compression, CTCAE grade 2, patients” value was 0 and the “Spinal cord compression, CTCAE grade 3, patients” value was 1. The “Spinal cord compression, CTCAE grade 4, patients” value was 0, the “Spinal cord compression, patients with events, %” value was 5% and the “Tumour pain, CTCAE grade 1, patients” value was 0. The “Tumour pain, CTCAE grade 2, patients” value was 1, the “Tumour pain, CTCAE grade 3, patients” value was 2 and the “Tumour pain, CTCAE grade 4, patients” value was 0. The “Tumour pain, patients with events, %” value was 14%, the “Urinary tract infection, CTCAE grade 1, patients” value was 0 and the “Urinary tract infection, CTCAE grade 2, patients” value was 1. For the same compound, the “Urinary tract infection, CTCAE grade 3, patients” value was 1, the “Urinary tract infection, CTCAE grade 4, patients” value was 0 and the “Urinary tract infection, patients with events, %” value was 9%. The “Vomiting, CTCAE grade 1, patients” value was 3, the “Vomiting, CTCAE grade 2, patients” value was 2 and the “Vomiting, CTCAE grade 3, patients” value was 0. The “Vomiting, CTCAE grade 4, patients” value was 0, the “Vomiting, patients with events, %” value was 23% and the “drug-related adverse event: alopecia” value was 95%. For the same compound, the “drug-related adverse event: fatigue” value was 95%, the “drug-related adverse event: peripheral sensory neuropathy” value was 59% and the “drug-related adverse event: rash” value was 55%. For the same compound, the “incidence and severity of neutropenia/leukopenia, anaemia, myalgia and nausea/vomiting” value was “not increased relative to paclitaxel alone”, the “nadir of median haemoglobin, WBC, neutrophils and lymphocytes in each cycle” value was 15 days and the “nadir of median platelets in each cycle” value was 8 days. For the same compound, the “patients with SAEs” value was 12, the “γ-glutamyltransferase increased, CTCAE grade 1, patients” value was 0 and the “γ-glutamyltransferase increased, CTCAE grade 2, patients” value was 1. The “γ-glutamyltransferase increased, CTCAE grade 3, patients” value was 1, the “γ-glutamyltransferase increased, CTCAE grade 4, patients” value was 0 and the “γ-glutamyltransferase increased, patients with events, %” value was 9%. For the same compound, the “Alanine aminotransferase increased, CTCAE grade 1, patients” value (21 days) was 1, the “Alanine aminotransferase increased, CTCAE grade 2, patients” value (21 days) was 2 and the “Alanine aminotransferase increased, CTCAE grade 3, patients” value (21 days) was 0. For the same compound, the “Alanine aminotransferase increased, CTCAE grade 4, patients” value (21 days) was 0, the “Alanine aminotransferase increased, patients with events, %” value (21 days) was 14% and the “Alopecia, CTCAE grade 2, patients” value (21 days) was 8. The “Alopecia, CTCAE grade 3, patients” value (21 days) was 0, the “Alopecia, CTCAE grade 4, patients” value (21 days) was 0 and the “Alopecia, patients with events, %” value (21 days) was 68%. For the same compound, the “Anorexia, CTCAE grade 1, patients” value (21 days) was 4, the “Anorexia, CTCAE grade 2, patients” value (21 days) was 0 and the “Anorexia, CTCAE grade 3, patients” value (21 days) was 0. The “Anorexia, CTCAE grade 4, patients” value (21 days) was 0, the “Anorexia, patients with events, %” value (21 days) was 18% and the “Arthralgia, CTCAE grade 1, patients” value (21 days) was 5. For the same compound, the “Arthralgia, CTCAE grade 2, patients” value (21 days) was 0, the “Arthralgia, CTCAE grade 3, patients” value (21 days) was 0 and the “Arthralgia, CTCAE grade 4, patients” value (21 days) was 0. The “Arthralgia, patients with events, %” value (21 days) was 23%, the “Back pain, CTCAE grade 1, patients” value (21 days) was 2 and the “Back pain, CTCAE grade 2, patients” value (21 days) was 0. The “Back pain, CTCAE grade 3, patients” value (21 days) was 0, the “Back pain, CTCAE grade 4, patients” value (21 days) was 0 and the “Back pain, patients with events, %” value (21 days) was 9%. The “Blood bilirubin, CTCAE grade 1, patients” value (21 days) was 0, the “Blood bilirubin, CTCAE grade 2, patients” value (21 days) was 0 and the “Blood bilirubin, CTCAE grade 3, patients” value (21 days) was 0. The “Blood bilirubin, CTCAE grade 4, patients” value (21 days) was 0, the “Blood bilirubin, patients with events, %” value (21 days) was 0% and the “Bronchitis, CTCAE grade 1, patients” value (21 days) was 0. For the same compound, the “Bronchitis, CTCAE grade 2, patients” value (21 days) was 0, the “Bronchitis, CTCAE grade 3, patients” value (21 days) was 0 and the “Bronchitis, CTCAE grade 4, patients” value (21 days) was 0. The “Bronchitis, patients with events, %” value (21 days) was 0%, the “Constipation, CTCAE grade 1, patients” value (21 days) was 3 and the “Constipation, CTCAE grade 2, patients” value (21 days) was 1. The “Constipation, CTCAE grade 3, patients” value (21 days) was 0, the “Constipation, CTCAE grade 4, patients” value (21 days) was 0 and the “Constipation, patients with events, %” value (21 days) was 18%. For the same compound, the “Cough, CTCAE grade 1, patients” value (21 days) was 5, the “Cough, CTCAE grade 2, patients” value (21 days) was 0 and the “Cough, CTCAE grade 3, patients” value (21 days) was 0. The “Cough, CTCAE grade 4, patients” value (21 days) was 0, the “Cough, patients with events, %” value (21 days) was 23% and the “Cystitis, CTCAE grade 1, patients” value (21 days) was 0. For the same compound, the “Cystitis, CTCAE grade 2, patients” value (21 days) was 0, the “Cystitis, CTCAE grade 3, patients” value (21 days) was 0 and the “Cystitis, CTCAE grade 4, patients” value (21 days) was 0. The “Cystitis, patients with events, %” value (21 days) was 0%, the “Dehydration, CTCAE grade 1, patients” value (21 days) was 0 and the “Dehydration, CTCAE grade 2, patients” value (21 days) was 0. The “Dehydration, CTCAE grade 3, patients” value (21 days) was 1, the “Dehydration, CTCAE grade 4, patients” value (21 days) was 0 and the “Dehydration, patients with events, %” value (21 days) was 5%. For the same compound, the “Diabetes mellitus, CTCAE grade 1, patients” value (21 days) was 0, the “Diabetes mellitus, CTCAE grade 2, patients” value (21 days) was 0 and the “Diabetes mellitus, CTCAE grade 3, patients” value (21 days) was 1. For the same compound, the “Diabetes mellitus, CTCAE grade 4, patients” value (21 days) was 0, the “Diabetes mellitus, patients with events, %” value (21 days) was 5% and the “Diarrhoea, CTCAE grade 1, patients” value (21 days) was 2. The “Diarrhoea, CTCAE grade 2, patients” value (21 days) was 0, the “Diarrhoea, CTCAE grade 3, patients” value (21 days) was 0 and the “Diarrhoea, CTCAE grade 4, patients” value (21 days) was 0. For the same compound, the “Diarrhoea, patients with events, %” value (21 days) was 9%, the “Dizziness, CTCAE grade 1, patients” value (21 days) was 4 and the “Dizziness, CTCAE grade 2, patients” value (21 days) was 1. For the same compound, the “Dizziness, CTCAE grade 3, patients” value (21 days) was 0, the “Dizziness, CTCAE grade 4, patients” value (21 days) was 0 and the “Dizziness, patients with events, %” value (21 days) was 23%. For the same compound, the “Drug hypersensitivity, CTCAE grade 1, patients” value (21 days) was 0, the “Drug hypersensitivity, CTCAE grade 2, patients” value (21 days) was 0 and the “Drug hypersensitivity, CTCAE grade 3, patients” value (21 days) was 0. For the same compound, the “Drug hypersensitivity, CTCAE grade 4, patients” value (21 days) was 0, the “Drug hypersensitivity, patients with events, %” value (21 days) was 0% and the “Dry skin, CTCAE grade 1, patients” value (21 days) was 0. For the same compound, the “Dry skin, CTCAE grade 2, patients” value (21 days) was 0, the “Dry skin, CTCAE grade 3, patients” value (21 days) was 1 and the “Dry skin, CTCAE grade 4, patients” value (21 days) was 0. For the same compound, the “Dry skin, patients with events, %” value (21 days) was 5%.
